Measured values published in patent EP2017264A1, “Substituted phenyl propargyl compounds, method for their manufacture and their use as herbicides and plant growth regulators” (BAYER CROPSCIENCE AG, priority 2007, dated 2009).

Key:
[1] = system: Echinochloa crus-galli, Setaria viridis, Stellaria media und Veronica persica; assay: Pre-emergence weed control, greenhouse pot test; format: in vivo; settings: Aufwandmenge von 1,28 kg oder weniger Aktivsubstanz pro Hektar, visual rating after 3 bis 4 Wochen vs untreated controls
Text: Samen bzw. Rhizomstücke von mono- und dikotylen Unkrautpflanzen wurden in Plastiktöpfen in sandiger Lehmerde ausgelegt und mit Erde abgedeckt. Die in Form von benetzbaren Pulvern oder Emulsionskonzentraten formulierten erfindungsgemäßen Verbindungen wurden dann als wäßrige Suspension bzw. Emulsion mit einer Wasseraufwandmenge von umgerechnet 600 bis 800 l/ha in unterschiedlichen Dosierungen auf die Oberfläche der Abdeckerde appliziert.
Nach der Behandlung wurden die Töpfe im Gewächshaus aufgestellt und unter guten Wachstumsbedingungen für die Unkräuter gehalten. Die optische Bonitur der Pflanzen- bzw. Auflaufschäden erfolgte nach dem Auflaufen der Versuchspflanzen nach einer Versuchszeit von 3 bis 4 Wochen im Vergleich zu unbehandelten Kontrollen. Wie die Testergebnisse zeigten, wiesen die erfindungsgemäßen Verbindungen eine gute herbizide Vorauflaufwirksamkeit gegen ein breites Spektrum von Ungräsern und Unkräutern auf.

[2] = system: Echinochloa crus-galli, Setaria viridis, Abuthilon theophrasti, Amaranthus retroflexus und Veronica persica; assay: Post-emergence weed control, greenhouse pot test; format: in vivo; settings: three-leaf stage, Aufwandmenge von 1,28 kg und weniger Aktivsubstanz pro Hektar, visual rating after ca. 3 bis 4 Wochen vs untreated controls
Text: Samen bzw. Rhizomstücke von mono- und dikotylen Unkräutern wurden in Plastiktöpfen in sandigem Lehmboden ausgelegt, mit Erde abgedeckt und im Gewächshaus unter guten Wachstumsbedingungen angezogen. Drei Wochen nach der Aussaat wurden die Versuchspflanzen im Dreiblattstadium behandelt. Die als Spritzpulver bzw. als Emulsionskonzentrate formulierten erfindungsgemäßen Verbindungen wurden in verschiedenen Dosierungen mit einer Wasseraufwandmenge von umgerechnet 600 bis 800 I/ha auf die grünen Pflanzenteile gesprüht. Nach ca. 3 bis 4 Wochen Standzeit der Versuchspflanzen im Gewächshaus unter optimalen Wachstumsbedingungen wurde die Wirkung der Präparate optisch im Vergleich zu unbehandelten Kontrollen bonitiert. Die erfindungsgemäßen Mittel wiesen auch im Nachauflauf eine gute herbizide Wirksamkeit gegen ein breites Spektrum wirtschaftlich wichtiger Ungräser und Unkräuter auf. Beispielsweise zeigten die Beispiele Nr.

Description for physchem: "LogP" = Verteilungskoeffizient in einem Zweiphasengemisch aus n-Octanol und Wasser.
Die log P-Daten wurden in Übereinstimmung mit der EEC Direktive 79/831, Anlage V.A8 (Annex V.A8) mittels HPLC (High Performance Liquid Chromatography) auf einer Umkehrphase-Säule (reversed-phase column) (C18) mit folgenden Methoden bestimmt: Temperatur: 40°C; Mobile Phase: 0,1 % bzw. 0,06 %ige wässrige Ameisensäure oder 0,1 % wässriger Phosphorsäure und Acetonitril; linearer Gradient von 10% Acetonitril bis 90% bzw. 95 % Acetonitril. Die Kalibrierung wurde ausgeführt mit Hilfe unverzweigter Alkan-2-one (bestehend aus 3 bis 13 bzw.16 Kohlenstoff-Atomen) mit bekannten IogP-Werten (Bestimmung der IogP-Werte über die Retentionszeiten mittels linearer Interpolation zwischen zwei nachfolgenden Alkanonen).

Structure (SMILES)	chromatographic logP (physchem)	herbizide Wirkung gegen Schadpflanzen im Vorauflaufverfahren [1]	herbizide Wirkung gegen Schadpflanzen im Nachauflaufverfahren [2]
COc1ccccc1C=NOC(C)C#Cc1cccc(SC)c1 (centres unmarked) [Beispiel 1.301]	4.85	sehr gute herbizide Wirkung	sehr gute herbizide Wirkung
Cc1cccc(C=NOC(C)C#Cc2cccc([S+](C)[O-])c2)n1 (centres unmarked) [Beispiel 3.086]	1.57	sehr gute herbizide Wirkung	sehr gute herbizide Wirkung
COc1nc(Cl)cnc1C=NOCC#Cc1cccc([S+](C)[O-])c1 (centres unmarked) [Beispiel 4.106]	2.21	–	–
COc1ncc(C=NOCC#Cc2cccc(SC)c2)cc1F [Beispiel 5.040]	4.23	sehr gute herbizide Wirkung	sehr gute herbizide Wirkung
COc1ncc(C=NOCC#Cc2cccc([S+](C)[O-])c2)cc1F (centres unmarked) [Beispiel 5.041]	2.28	sehr gute herbizide Wirkung	sehr gute herbizide Wirkung
COc1ncc(C=NOCC#Cc2cccc(CC#N)c2)cc1F [Beispiel 5.044]	3.24	–	–
COc1ccc(C=NOCC#Cc2cccc(SC)c2)cn1 [Beispiel 5.120]	4	sehr gute herbizide Wirkung	sehr gute herbizide Wirkung
COc1ccc(C=NOCC#Cc2cccc(S(C)(=O)=O)c2)cn1 [Beispiel 5.122]	2.5	–	–
COc1ccc(C=NOCC#Cc2ccc(F)c(SC)c2)cn1 [Beispiel 5.125]	2.94	–	–
COc1ccc(C=NOCC#Cc2ccc(C#N)c(SC)c2)cn1 [Beispiel 5.126]	3.49	–	–
CCSc1cccc(C#CCON=Cc2ccc(OC)nc2)c1 [Beispiel 5.127]	4.34	–	–
CCSc1cc(C#CCON=Cc2ccc(OC)nc2)ccc1OC [Beispiel 5.131]	4.03	–	–
CC[S+]([O-])c1cc(C#CCON=Cc2ccc(OC)nc2)ccc1OC (centres unmarked) [Beispiel 5.132]	2.42	–	–
CCSc1cc(C#CCON=Cc2ccc(OC)nc2)ccc1C [Beispiel 5.133]	4.9	–	–
CC[S+]([O-])c1cc(C#CCON=Cc2ccc(OC)nc2)ccc1C (centres unmarked) [Beispiel 5.134]	2.51	–	–
COc1ccc(C=NOCC#Cc2cccc(OC(F)(F)F)c2)cn1 [Beispiel 5.135]	4.26	–	–
COc1ccc(C=NOCC#Cc2cccc(SC(C)C)c2)cn1 [Beispiel 5.136]	4.8	–	–
C=CCSc1cccc(C#CCON=Cc2ccc(OC)nc2)c1 [Beispiel 5.137]	4.72	–	–

Structure (SMILES)	chromatographic logP (physchem)	herbizide Wirkung gegen Schadpflanzen im Vorauflaufverfahren [1]	herbizide Wirkung gegen Schadpflanzen im Nachauflaufverfahren [2]
COc1ccc(C=NOCC#Cc2ccc(OC)c(SC)c2)cn1 [Beispiel 5.138]	3.83	–	–
COc1ccc(C=NOCC#Cc2ccc(F)c(SC)c2F)cn1 [Beispiel 5.139]	4.1	–	–
COc1ccc(C=NOCC#Cc2ccc(F)c([S+](C)[O-])c2F)cn1 (centres unmarked) [Beispiel 5.140]	2.17	–	–
COc1ccc(C=NOCC#Cc2ccc(F)c(F)c2)cn1 [Beispiel 5.141]	3.83	–	–
COc1ccc(C=NOCC#Cc2cc(C)c(F)c(SC)c2)cn1 [Beispiel 5.142]	4.54	–	–
COc1ccc(C=NOCC#Cc2ccccc2SC)cn1 [Beispiel 5.143]	3.79	–	–
COc1ccc(C=NOCC#Cc2cc(C)c(F)c([S+](C)[O-])c2)cn1 (centres unmarked) [Beispiel 5.144]	2.76	–	–
COc1ccc(C=NOCC#Cc2ccccc2[S+](C)[O-])cn1 (centres unmarked) [Beispiel 5.145]	2.19	–	–
COc1ccc(C=NOCC#Cc2ccc(F)c(F)c2SC)cn1 [Beispiel 5.146]	4.11	–	–
COc1ccc(C=NOCC#Cc2ccc(F)c(F)c2[S+](C)[O-])cn1 (centres unmarked) [Beispiel 5.147]	2.17	–	–
COc1ccc(C=NOCC#Cc2cc(SC)c(F)c(SC)c2)cn1 [Beispiel 5.148]	4.57	–	–
COc1ncccc1C=NOCC#Cc1ccc(C)c([S+](C)[O-])c1 (centres unmarked) [Beispiel 5.168]	2.42	–	–
Cc1ccc(C#CCON=Cc2cccnc2)cc1[S+](C)[O-] (centres unmarked) [Beispiel 5.170]	1.37	–	–
CCOc1ncccc1C=NOCC#Cc1ccc(C)c([S+](C)[O-])c1 (centres unmarked) [Beispiel 5.171]	2.83	–	–
CSc1cccc(C#CCON=Cc2ccc(OC(C)C)nc2)c1 [Beispiel 5.177]	4.87	sehr gute herbizide Wirkung	sehr gute herbizide Wirkung
CC(C)Oc1ccc(C=NOCC#Cc2cccc(CC#N)c2)cn1 [Beispiel 5.178]	3.69	–	–
CC(C)Oc1ccc(C=NOCC#Cc2cccc([S+](C)[O-])c2)cn1 (centres unmarked) [Beispiel 5.181]	2.77	sehr gute herbizide Wirkung	sehr gute herbizide Wirkung

Now from value to compound, other results behind:

chromatographic logP (physchem)	Structure (SMILES)	herbizide Wirkung gegen Schadpflanzen im Vorauflaufverfahren [1]	herbizide Wirkung gegen Schadpflanzen im Nachauflaufverfahren [2]
4.93	COc1ccc(C=NOCC#Cc2cccc(SC)c2)c(OC)n1 [Beispiel 5.183]	–	–
3.79	COc1ccc(C=NOCC#Cc2cccc(CC#N)c2)c(OC)n1 [Beispiel 5.184]	–	–
2.89	COc1ccc(C=NOCC#Cc2cccc([S+](C)[O-])c2)c(OC)n1 (centres unmarked) [Beispiel 5.185]	–	sehr gute herbizide Wirkung
4.22	CSc1cccc(C#CCON=Cc2ccc(SC)nc2)c1 [Beispiel 5.186]	–	–
3.18	CSc1ccc(C=NOCC#Cc2cccc(CC#N)c2)cn1 [Beispiel 5.187]	–	–
2.23	CSc1ccc(C=NOCC#Cc2cccc([S+](C)[O-])c2)cn1 (centres unmarked) [Beispiel 5.188]	–	sehr gute herbizide Wirkung
2.42	CCOc1ccc(C=NOCC#Cc2cccc([S+](C)[O-])c2)cn1 (centres unmarked) [Beispiel 5.189]	sehr gute herbizide Wirkung	sehr gute herbizide Wirkung
4.42	CCOc1ccc(C=NOCC#Cc2cccc(SC)c2)cn1 [Beispiel 5.190]	sehr gute herbizide Wirkung	sehr gute herbizide Wirkung
5.08	CSc1cccc(C#CCON=Cc2ccc(OCC(F)(F)F)nc2OCC(F)(F)F)c1 [Beispiel 5.191]	–	–
4.03	N#CCc1cccc(C#CCON=Cc2ccc(OCC(F)(F)F)nc2OCC(F)(F)F)c1 [Beispiel 5.192]	–	–
3.4	C[S+]([O-])c1cccc(C#CCON=Cc2ccc(OCC(F)(F)F)nc2OCC(F)(F)F)c1 (centres unmarked) [Beispiel 5.193]	–	–
5.44	CSc1cccc(C#CCON=Cc2ccc(C3CCCC3)nc2)c1 [Beispiel 5.194]	–	–
4.27	N#CCc1cccc(C#CCON=Cc2ccc(C3CCCC3)nc2)c1 [Beispiel 5.195]	–	–
3.43	C[S+]([O-])c1cccc(C#CCON=Cc2ccc(C3CCCC3)nc2)c1 (centres unmarked) [Beispiel 5.196]	–	–
4.81	COc1ncc(C=NOCC#Cc2cccc(SC)c2)cc1Br [Beispiel 5.197]	–	–
4.65	COc1ncc(C=NOCC#Cc2cc(SC)c(F)c(SC)c2)cc1F [Beispiel 5.198]	–	–
4.68	CCOc1ncc(C=NOCC#Cc2cccc(SC)c2)cc1F [Beispiel 5.199]	–	–
2.18	CS(=O)(=O)c1ccc(C=NOCC#Cc2cccc(CC#N)c2)cn1 [Beispiel 5.200]	–	–
3.43	COc1ccccc1-c1ccn(CC#Cc2cccc(SC)c2)n1 [Beispiel 6.050]	–	–
